Source: patent publication US10787450B2 (BRISTOL-MYERS SQUIBB COMPANY, priority 2016, dated 2020)
Structures can show the parent of a compound that is named as a salt.

Target: ROCK2 (Homo sapiens (Human), UniProt O75116)
Test: ROCK2 kinase inhibition assay (FITC peptide substrate, LABCHIP 3000 Reader)
Format: biochemical
Conditions: 5 μM ATP, 1.5 μM peptide substrate
Protocol: The effectiveness of compounds of the present invention as ROCK inhibitors can be determined in a 30 μL assay containing 20 mM HEPES, pH 7.5, 20 mM MgCl2, 0.015% Brij-35, 4 mM DTT, 5 μM ATP and 1.5 μM peptide substrate (FITC-AHA-AKRRRLSSLRA-OH) (SEQ ID NO. 1). Compounds were dissolved in DMSO so that the final concentration of DMSO was <2%, and the reaction was initiated with Rho kinase variants. After incubation, the reaction was terminated by the addition of EDTA and the phosphorylated and non-phosphorylated peptides separated using a LABCHIP® 3000 Reader (Caliper Life Sciences). […] Compounds were tested in dose-response format, and the inhibition of kinase activity was calculated at each concentration of compound. The inhibition data were fit using a curve-fitting program to determine the IC50; i.e., the concentration of compound required to inhibit 50% of kinase activity.
Representative examples were tested in the ROCK2 assay described above and found having ROCK2 inhibitory activity.

Sequence of ROCK2 (O75116 whole entry, species assumed): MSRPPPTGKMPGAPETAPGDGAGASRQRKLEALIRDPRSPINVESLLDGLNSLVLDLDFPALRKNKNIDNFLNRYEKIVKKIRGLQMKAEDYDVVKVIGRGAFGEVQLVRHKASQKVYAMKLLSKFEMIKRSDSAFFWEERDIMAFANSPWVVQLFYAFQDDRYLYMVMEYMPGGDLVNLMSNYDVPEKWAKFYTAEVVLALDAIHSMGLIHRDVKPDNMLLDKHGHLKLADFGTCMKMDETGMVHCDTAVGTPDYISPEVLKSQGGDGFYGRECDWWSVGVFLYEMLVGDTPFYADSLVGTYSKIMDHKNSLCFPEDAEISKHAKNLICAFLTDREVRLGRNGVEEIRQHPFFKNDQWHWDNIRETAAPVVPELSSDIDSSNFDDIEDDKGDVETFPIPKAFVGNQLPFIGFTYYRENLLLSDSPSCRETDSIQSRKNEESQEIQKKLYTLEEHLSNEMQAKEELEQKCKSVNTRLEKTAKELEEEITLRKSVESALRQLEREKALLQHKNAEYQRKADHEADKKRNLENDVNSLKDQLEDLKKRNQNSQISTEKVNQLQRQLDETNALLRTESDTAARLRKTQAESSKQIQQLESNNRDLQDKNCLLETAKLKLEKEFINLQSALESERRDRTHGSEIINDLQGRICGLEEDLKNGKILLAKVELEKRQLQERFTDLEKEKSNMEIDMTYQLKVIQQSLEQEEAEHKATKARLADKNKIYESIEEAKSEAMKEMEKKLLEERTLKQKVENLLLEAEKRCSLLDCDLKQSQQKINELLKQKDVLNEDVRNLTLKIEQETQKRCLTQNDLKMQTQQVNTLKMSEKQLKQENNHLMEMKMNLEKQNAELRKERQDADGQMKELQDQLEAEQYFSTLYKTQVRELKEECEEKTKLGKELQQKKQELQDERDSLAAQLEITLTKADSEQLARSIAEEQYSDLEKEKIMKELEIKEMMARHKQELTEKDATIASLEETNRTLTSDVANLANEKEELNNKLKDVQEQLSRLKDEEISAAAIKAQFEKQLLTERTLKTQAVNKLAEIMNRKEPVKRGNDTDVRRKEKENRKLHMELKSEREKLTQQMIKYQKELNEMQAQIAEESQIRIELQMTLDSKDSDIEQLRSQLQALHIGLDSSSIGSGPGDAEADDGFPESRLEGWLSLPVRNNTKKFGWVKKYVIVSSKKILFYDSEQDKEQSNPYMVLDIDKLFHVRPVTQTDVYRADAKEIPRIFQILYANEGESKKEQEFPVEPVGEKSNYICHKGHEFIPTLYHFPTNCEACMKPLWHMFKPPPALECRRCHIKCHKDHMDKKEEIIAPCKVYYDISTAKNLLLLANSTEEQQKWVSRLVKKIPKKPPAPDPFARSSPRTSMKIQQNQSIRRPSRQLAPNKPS

Row | Structure (SMILES) | IC50
1 | COc1cccc(CN2C(=O)N(c3ccc(-c4cn[nH]c4)c(OC)n3)CC23CCN(C(C)=O)CC3)c1 [Example 85, 8-acetyl-3-(6-methoxy-5-(1H-pyrazol-4-yl)pyridin-2-yl)-1-(3-methoxybenzyl)-1,3,8-triazaspiro[4.5]decan-2-one] | < 3 nM
2 | O=C1N(c2ccc(-c3cn[nH]c3)cc2)CC2(CCOCC2)N1Cc1cccc(Cl)c1 [Example 15] | 250 to 3000 nM
3 | COc1cccc(CN2C(=O)N(c3ccc(-c4cn[nH]c4)cn3)CC23CCN(CCO)CC3)c1 [Example 159, 3-(5-(1H-pyrazol-4-yl)pyridin-2-yl)-8-(2-hydroxyethyl)-1-(3-methoxybenzyl)-1,3,8-triazaspiro[4.5]decan-2-one] | < 3 nM
4 | COC(=O)N1CCC2(CC1)CN(c1ccc(-c3cn[nH]c3)c(OC)n1)C(=O)N2Cc1cccc(F)c1C [Example 103, methyl 1-(3-fluoro-2-methylbenzyl)-3-(6-methoxy-5-(1H-pyrazol-4-yl)pyridin-2-yl)-2-oxo-1,3,8-triazaspiro[4.5]decane-8-carboxylate] | < 3 nM
5 | COc1cccc(CN2C(=O)N(c3ccc(-c4cn[nH]c4)cn3)CC23CCN(C(=O)C(C)O)CC3)c1 (stereo not drawn) [Example 198, 3-(5-(1H-pyrazol-4-yl)pyridin-2-yl)-8-(2-hydroxypropanoyl)-1-(3-methoxybenzyl)-1,3,8-triazaspiro[4.5]decan-2-one] | 3 to 30 nM
6 | COc1cccc(CN2C(=O)N(c3ncc(-c4cn[nH]c4)c(OC)n3)CC23CCN(C(=O)C2CC(F)(F)C2)CC3)c1 [Example 209, 8-(3,3-difluorocyclo-butanecarbonyl)-3-(4-methoxy-5-(1H-pyrazol-4-yl)pyrimidin-2-yl)-1-(3-methoxybenzyl)-1,3,8-triazaspiro[4.5]decan-2-one] | 3 to 30 nM
7 | CCc1nc(N2CC3(CCN(C(=O)C4(O)CC4)CC3)N(Cc3cccc(OC)c3)C2=O)ccc1-c1cn[nH]c1 [Example 216, 3-(6-ethyl-5-(1H-pyrazol-4-yl)pyridin-2-y)-8-(1-hydroxycyclopropanecarbonyl)-1-(3-methoxybenzyl)-1,3,8-triazaspiro[4.5]decan-2-one] | 3 to 30 nM
8 | CCc1nc(N2CC3(CCN(C(=O)C(F)F)CC3)N(Cc3cccc(OC)c3)C2=O)ccc1-c1cn[nH]c1 [Example 183, 8-(2,2-difluoroacetyl)-3-(6-ethyl-5-(1H-pyrazol-4-yl)pyridin-2-yl)-1-(3-methoxybenzyl)-1,3,8-triazaspiro[4.5]decan-2-one] | < 3 nM
9 | COc1nc(N2CC3(CCN(C(=O)CC(C)c4ccccc4)CC3)N(Cc3cccc(F)c3C)C2=O)ccc1-c1cn[nH]c1 (stereo not drawn) [Example 224, 1-(3-fluoro-2-methylbenzyl)-3-(6-methoxy-5-(1H-pyrazol-4-yl)pyridin-2-yl)-8-(3-phenylbutanoyl)-1,3,8-triazaspiro[4.5]decan-2-one] | 3 to 30 nM
10 | CCc1nc(N2CC3(CCN(C(=O)CO)CC3)N(Cc3cc(F)cc(OC)c3)C2=O)ccc1-c1cn[nH]c1 [Example 186, 3-(6-ethyl-5-(1H-pyrazol-4-yl)pyridin-2-yl)-1-(3-fluoro-5-methoxybenzyl)-8-(2-hydroxyacetyl)-1,3,8-triazaspiro[4.5]decan-2-one] | < 3 nM
11 | COc1cccc(CN2C(=O)N(c3ccc(-c4cn[nH]c4)cc3)CC23CCN(S(C)(=O)=O)CC3)c1 [Example 234, 3-(4-(1H-pyrazol-4-yl)phenyl)-1-(3-methoxybenzyl)-8-(methylsulfonyl)-1,3,8-triazaspiro[4.5]decan-2-one] | < 3 nM
12 | COc1cccc(CN2C(=O)N(c3ccc(-c4cn[nH]c4)cc3)CC23CCN(CC2CC2)CC3)c1 [Example 115, 3-(4-(1H-pyrazol-4-yl)phenyl)-8-(cyclopropylmethyl)-1-(3-methoxybenzyl)-1,3,8-triazaspiro[4.5]decan-2-one] | < 3 nM
13 | COc1cccc(CN2C(=O)N(c3ccc(-c4cn[nH]c4)c(OC)n3)CC23CCN(CCO)CC3)c1 [Example 146, 8-(2-hydroxyethyl)-3-(6-methoxy-5-(1H-pyrazol-4-yl)pyridin-2-yl)-1-(3-methoxybenzyl)-1,3,8-triazaspiro[4.5]decan-2-one] | < 3 nM
14 | COc1cccc(CN2C(=O)N(c3ccc(-c4cn[nH]c4)cc3)CC23CCN(C(=O)C(C)O)CC3)c1 (stereo not drawn) [Example 191, 3-(4-(1H-pyrazol-4-yl)phenyl)-8-(2-hydroxypropanoyl)-1-(3-methoxybenzyl)-1,3,8-triazaspiro[4.5]decan-2-one] | < 3 nM
15 | O=C(NC1CCC1)c1cccc(CN2C(=O)N(c3ccc(-c4cn[nH]c4)cc3)CC23CCOCC3)c1 [Example 33, 3-((3-(4-(1H-pyrazol-4-yl)phenyl)-2-oxo-8-oxa-1,3-diazaspiro[4.5]decan-1-yl)methyl)-N-cyclobutylbenzamide] | < 3 nM

Next, values leading:

Row | IC50 | Structure (SMILES)
16 | 3 to 30 nM | CCc1nc(N2CC3(CCN(CCC(F)(F)F)CC3)N(Cc3cccc(OC)c3)C2=O)ccc1-c1cn[nH]c1 [Example 127, 3-(6-ethyl-5-(1H-pyrazol-4-yl)pyridin-2-yl)-1-(3-methoxybenzyl)-8-(3,3,3-trifluoropropyl)-1,3,8-triazaspiro[4.5]decan-2-one]
17 | 30 to 250 nM | COc1cccc(NC2C(=O)N(c3ccc(-c4cn[nH]c4)cn3)CC23CCN(C(=O)CCc2nnc(-c4ccccc4)o2)CC3)c1 (stereo not drawn) [Example 258, 2-(5-(1H-pyrazol-4-yl)pyridin-2-yl)-4-((3-methoxy-phenyl)amino)-8-(3-(5-phenyl-1,3,4-oxadiazol-2-yl)pro-panoyl)-2,8-diazaspiro [4.5]decan-3-one]
18 | < 3 nM | COc1cccc(CN2C(=O)N(c3ccc(-c4cn[nH]c4)cc3)CC23CCN(CC(O)CO)CC3)c1 (stereo not drawn) [Example 120, 3-(4-(1H-pyrazol-4-yl)phenyl)-8-(2,3-dihydroxypropyl)-1-(3-methoxybenzyl)-1,3,8-triazaspiro[4.5]decan-2-one]
19 | < 3 nM | CCOC(=O)N1CCC2(CC1)CN(c1ccc(-c3cn[nH]c3)cc1)C(=O)N2Cc1cccc(OC)c1 [Example 96, ethyl 3-(4-(1H-pyrazol-4-yl)phenyl)-1-(3-methoxybenzyl)-2-oxo-1,3,8-triazaspiro[4.5]decane-8-carboxylate]
20 | < 3 nM | COc1cccc(CN2C(=O)N(c3ccc(-c4cn[nH]c4)c(OC)n3)CC23CCN(C(=O)OC(C)(C)C)CC3)c1 [Example 54, tert-butyl 3-(6-methoxy-5-(1H-pyrazol-4-yl)pyridin-2-yl)-1-(3-methoxybenzyl)-2-oxo-1,3,8-triazaspiro[4.5]decane-8-carboxylate]
21 | 3 to 30 nM | CCc1nc(N2CC3(CCN(C(=O)C4CC(F)C4)CC3)N(Cc3cccc(OC)c3)C2=O)ccc1-c1cn[nH]c1 (stereo not drawn) [Example 208, 3-(6-ethyl-5-(1H-pyrazol-4-yl)pyridin-2-yl)-8-(3-fluorocyclobutane-carbonyl)-1-(3-methoxybenzyl)-1,3,8-triazaspiro[4.5]decan-2-one]
22 | 30 to 250 nM | Cc1cc(F)ccc1CN1C(=O)N(c2ccc(-c3cn[nH]c3)cc2)CC12CCOCC2 [Example 26, 3-(4-(1H-pyrazol-4-yl)phenyl)-1-(4-fluoro-2-methylbenzyl)-8-oxa-1,3-diazaspiro[4.5]decan-2-one]
23 | < 3 nM | COc1cccc(CN2C(=O)N(c3ccc(-c4cn[nH]c4)cc3)CC23CCN(C(=O)N(C)C)CC3)c1 [Example 93, 3-(4-(1H-pyrazol-4-yl)phenyl)-1-(3-methoxybenzyl)-N,N-dimethyl-2-oxo-1,3,8-triazaspiro[4.5]decane-8-carboxamide]
24 | < 3 nM | COCC(=O)N1CCC2(CC1)CN(c1ccc(-c3cn[nH]c3)c(OC)n1)C(=O)N2Cc1cccc(OC)c1 [Example 219, 3-(6-methoxy-5-(1H-pyrazol-4-yl)pyridin-2-yl)-8-(2-methoxyacetyl)-1-(3-methoxybenzyl)-1,3,8-triazaspiro[4.5]decan-2-one]
25 | 3 to 30 nM | COc1cccc(CN2C(=O)N(c3ncc(-c4cn[nH]c4)c(OC)n3)CC23CCN(C(=O)CC(C)C)CC3)c1 [Example 214, 3-(4-methoxy-5-(1H-pyrazol-4-yl)pyrimidin-2-yl)-1-(3-methoxybenzyl)-8-(3-methylbutanoyl)-1,3,8-triazaspiro[4.5]decan-2-one]
26 | < 3 nM | COc1cc(F)cc(CN2C(=O)N(c3ccc(-c4cn[nH]c4)cc3)CC23CCNCC3)c1 [Example 58, 3-(4-(1H-pyrazol-4-yl)phenyl)-1-(3-fluoro-5-methoxybenzyl)-1,3,8-triazaspiro[4.5]decan-2-one, TFA]
27 | < 3 nM | COc1nc(N2CC3(CCN(C(=O)CN(C)C)CC3)N(Cc3cccc(F)c3C)C2=O)ccc1-c1cn[nH]c1 [Example 225, 8-(2-(dimethylamino)acetyl)-1-(3-fluoro-2-methylbenzyl)-3-(6-methoxy-5-(1H-pyrazol-4-yl)pyridin-2-yl)-1,3,8-triazaspiro[4.5]decan-2-one]
28 | < 3 nM | O=C(NC1CCOC1)c1cccc(CN2C(=O)N(c3ccc(-c4cn[nH]c4)cc3)CC23CCOCC3)c1 (stereo not drawn) [Example 40, 3-((3-(4-(1H-pyrazol-4-yl)phenyl)-2-oxo-8-oxa-1,3-diazaspiro[4.5]decan-1-yl)methyl)-N-(tetrahydrofuran-3-yl)benzamide]
29 | < 3 nM | COc1cccc(CN2C(=O)N(c3ccc(-c4cn[nH]c4)cn3)CC23CCN(CC(C)(C)O)CC3)c1 [Example 161, 3-(5-(1H-pyrazol-4-yl)pyridin-2-yl)-8-(2-hydroxy-2-methylpropyl)-1-(3-methoxybenzyl)-1,3,8-triazaspiro[4.5]decan-2-one]
30 | < 3 nM | COc1cccc(CN2C(=O)N(c3ccc(-c4cn[nH]c4)cc3)CC23CCN(C(=O)OC(C)C)CC3)c1 [Example 99, isopropyl 3-(4-(1H-pyrazol-4-yl)phenyl)-1-(3-methoxybenzyl)-2-oxo-1,3,8-triazaspiro[4.5]decane-8-carboxylate]
